Measured values taken from US20240083998A1, “PREVENTION AND TREATMENT OF STEROID-RESISTANT OR GUT GRAFT-VERSUS-HOST DISEASE (GVHD)” (CIY OF HOPE, priority 2021, published 2024).

System: BALB/c recipients
Method: Splenocytes and T cell depleted bone marrow cells from donors were injected via tail vein into recipients 6-8 hours after irradiation. […] Depletion of T cells from the bone marrow was accomplished by using biotin-conjugated anti-CD4 and anti-CD8 mAbs, and streptavidin Microbeads (Miltenyi Biotec, Germany), followed by passage through an autoMACS Pro cell sorter (Miltenyi Biotec, Germany). Microbeads (Ly-2, Miltenyi Biotec, Germany) were used for to purify CD8^+T cell, and purity was>99%. The assessment and scoring of clinical signs of GVHD have been described in previous publications^60.
ELISA: Reg3γ(antibodies online), ST2 (R&D system) and sTNFR1 (Thermo Scientific) in serum were measured by enzyme-linked immune sorbent assay (ELISA) according to manufacturer's protocol. Serum was collected and spun down at 2000 rpm for 10 min at 4° C. Clear supernatant was collected and stored at −20° C. until ELISA analysis. […]
Histological analysis: Tissue specimens were fixed in formalin before embedding in paraffin blocks, sectioned and stained with H&E. Slides were examined at 100× or 200× magnification and visualized with a Zeiss Observer II. […] For Paneth cell quantification, a total of 9 pictures from 3 different locations of the H&E-stained slides from one mouse were taken under 200× magnification, and total Paneth cell and crypt numbers were counted, Paneth cell numbers per crypt are shown. […]

Question: For `C[C@@H]1C[C@H]2[C@@H]3CCC4=CC(=O)C=C[C@]4(C)[C@@]3(F)[C@@H](O)C[C@]2(C)[C@@]1(O)C(=O)CO` [DEX, Dexamethasone], which “IL-17A+IL-22−CD4+Th17 and IL-17A+IL-22−CD8+Tc17 cells among CD4+ and CD8+T cells” value (recipients treated with DEX, 7 days after HCT) is on record?
Answer: Its value is 1-5%.

Question: What about the “survival after HCT” value (single injection 5 mg/Kg on day 3 (1-DEX), mild clinical GVHD) of the same compound?
Answer: Its value is “up to 20 days”.
